Reference: paper PMC9958325 (Nature Communications, 2023)
Where “and” joins values, the source holds several entries; their conditions need not be identical. Equal entries are not always repeated. Where two headings read alike, the source gives them in different places.

How the values were obtained:
VeroE6 cells [1] = conditions: African green monkey, 6 h
in vivo = conditions: male, PXB (human liver-chimeric), mouse, po, 10 mg/kg
in vitro [2] = conditions: human, HeLa-ACE2-TMPRSS2 cells
in vitro [3] = conditions: African green monkey, VeroE6 cells
A549-ACE2-TMPRSS2 cells = conditions: read-out: CC50, A549-ACE2-TMPRSS2; noninfected cells
VeroE6 cells [4] = assay: Cytotoxicity (WST-8) in noninfected VeroE6 cells
SARS-CoV-2 M^pro = SARS-CoV-2 M^pro (Severe acute respiratory syndrome coronavirus 2, UniProt P0DTD1); conditions: PDB 8DOX (TKB245), 8DPR (TKB248)
[5] = Pharmacokinetic study in ICR mice
SARS-CoV-2UW-5250^Delta = tested on: SARS-CoV-2UW-5250^Delta; design: species or system hACE2 knock-in mice; conditions: mouse, in vivo, ip, 100 mg/kg
HeLa-ACE2-TMPRSS2 cells = assay: Cytotoxicity (WST-8) in noninfected HeLa-ACE2-TMPRSS2 cells; conditions: read-out: CC50, HeLa-ACE2-TMPRSS2
[6] = tested on: SARS-CoV-2NC928-2N^Omicron_BA.1; design: species or system hACE2 knock-in mice; conditions: mouse, in vivo; for Virus titer in lung: ip
SARS-CoV-2 M^pro/3CL^pro = SARS-CoV-2 M^pro/3CL^pro (Severe acute respiratory syndrome coronavirus 2, UniProt P0DTD1); format: biochemical; design: IC95, individual assays / IC95, Average: unit: µM
human cathepsin L = molecular target: T1, human cathepsin L (Homo sapiens, UniProt P07711); assay: Human cathepsin L inhibitor screening assay; format: biochemical; conditions: for % inhibition against human Cathepsin: triplicate; for IC50: 30 minute incubation, mean ± 1 S.D., n=3
T1 construct: purchased abcam ab197012

[7] = mouse, in vivo
[8] = tested on: SARS-CoV-2NCD1288^Omicron_BA.2; design: species or system hACE2 knock-in mice; conditions: mouse, in vivo, ip, 120 mg/kg
[9] = molecular target: authentic SARS-CoV-2 M^pro (Severe acute respiratory syndrome coronavirus 2, UniProt P0DTD1)
Glycine-added M^pro = Glycine-added M^pro (Severe acute respiratory syndrome coronavirus 2, UniProt P0DTD1)
[10] = read-out: CC50, VeroE6 + 2 µM CP100356, CP100356 2 µM
[11] = source data, M^pro enzyme assay

T1 sequence (P07711 114-333): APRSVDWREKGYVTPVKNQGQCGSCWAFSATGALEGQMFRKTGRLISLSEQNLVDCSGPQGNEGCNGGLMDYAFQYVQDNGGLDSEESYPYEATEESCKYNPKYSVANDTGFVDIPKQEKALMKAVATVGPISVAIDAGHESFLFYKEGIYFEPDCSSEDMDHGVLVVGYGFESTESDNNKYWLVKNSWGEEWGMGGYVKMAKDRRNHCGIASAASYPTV

Structure (SMILES) | CC50 (A549-ACE2-TMPRSS2 cells) [µM] | CC50 (VeroE6 cells [4]; read-out: CC50, VeroE6) [µM] | CC50 (VeroE6 cells [4]; [10]) [µM] | Binding mode in co-crystal structure (SARS-CoV-2 M^pro) | CC50 (HepG2 cells) [µM] | CC50 (HeLa-ACE2-TMPRSS2 cells) [µM] | SARS-CoV2 M^pro enzyme assay IC95 (SARS-CoV-2 M^pro/3CL^pro; FRET, mean ± 1 S.D.) [µM] | IC95, Average (SARS-CoV-2 M^pro/3CL^pro; [11]) | Effect on human cathepsin L (in words) (human cathepsin L) | % inhibition against human Cathepsin (human cathepsin L; 0.00106 µM) [%] | % inhibition against human Cathepsin (human cathepsin L; 0.0053 µM) [%] | % inhibition against human Cathepsin (human cathepsin L; 0.0266 µM) | % inhibition against human Cathepsin (human cathepsin L; 0.6 µM) | % inhibition against human Cathepsin (human cathepsin L; 3.3 µM) | % inhibition against human Cathepsin (human cathepsin L; 16.6 µM) | IC50 (human cathepsin L) [µM] | also measured
CC(C)(C)[C@H](NC(=O)C(F)(F)F)C(=O)N1C[C@H]2[C@@H]([C@H]1C(=O)N[C@H](C#N)C[C@@H]1CCNC1=O)C2(C)C [Nirmatrelvir, reference compound] | – | – | – | – | – | – | – | – | – | – | – | – | – | – | – | – | Intracellular amount, avg (VeroE6 cells [1]; 10 µM): 0 pmol(total); Intracellular amount, individual (VeroE6 cells [1]; 10 µM): 0 pmol(total); intracellular compound, /1x10^6 (VeroE6 cells [1]; 10 µM): 0 /1x10^6; intracellular compound, pmol(total) (VeroE6 cells [1]; 10 µM): 0 pmol; Intracellular amount, avg (VeroE6 cells [1]; 50 µM): 0.03906 pmol(total); Intracellular amount, avg (VeroE6 cells [1]; 100 µM): 0.1149 pmol(total); half-life (in vivo): 1.03 h; CC50 at 3 days (in vitro [2]): > 100 µM; CC50 at 3 days (in vitro [3]): > 100 µM
CC(C)(C)[C@H](NC(=O)C(F)(F)F)C(=O)N1C[C@H]2[C@@H]([C@H]1C(=O)N[C@@H](C[C@@H]1CCNC1=O)C(=O)c1nc3c(F)cccc3s1)C2(C)C [TKB245] | > 100 | > 100 | > 100 | covalent bond formation between Cys145 and 4-fluorobenzothioazoly ketone | > 200 | > 100 | 0.14 ± 0.07 | 0.1363 | neither of human cysteine enzymes, cathepsin L and calpain, were significantly affected | 0 | 0 | 0% and 0.8979% | 0% and 2.5149% | 9.142% and 0% and 2.217% | 21.1326% and 17.6611% and 11.0896% | > 16 | Plasma concentration ([5]; ICR mice, i.p. 10 mg/kg, 2:00:00, individual mice, 10 mg/kg): 528.9 ng/mL; Plasma concentration ([5]; ICR, i.p., 120 min, individual animals (2 per time point), LC/MS/MS): 528.86 ng/mL; Virus titer in lung (SARS-CoV-2UW-5250^Delta): 6.24 Log10 PFU/gr and 6.89 Log10 PFU/gr; Virus titer in lung ([6]; 100 mg/kg): 2.95 Log10 PFU/gr and 3.55 Log10 PFU/gr; IC95, individual assays (SARS-CoV-2 M^pro/3CL^pro; source data, M^pro enzyme assay, listed as TKB0245): 0.096 and 0.213 and 0.100; Body weights and survival rates [7]: no significant changes were recorded
CC(C)(C)[C@H](NC(=O)C(F)(F)F)C(=O)N1C[C@H]2[C@@H]([C@H]1C(=S)N[C@@H](C[C@@H]1CCNC1=O)C(=O)c1nc3c(F)cccc3s1)C2(C)C [TKB248] | > 100 | > 100 | > 100 | covalent bond formation between Cys145 and 4-fluorobenzothioazoly ketone | > 200 | > 100 | 6.00 ± 5.29 | 6.000 | neither of human cysteine enzymes, cathepsin L and calpain, were significantly affected | 0 | 0 | 0% | 0.7754% and 0% | 3.874% and 0.1997% and 5.01% | 10.3453% and 15.2677% and 19.1834% | > 16 | Virus titer in lung [8]: 5.57 Log10 PFU/gr and 4.93 Log10 PFU/gr; Peak ratio, Dimer-1X compound [9]: 42.6% and 25.2%; Peak ratio, M^pro Monomer [9]: 8.6% and 7.7%; Peak ratio, Monomer (Glycine-added M^pro): 36.5%; Peak ratio, Monomer-1X compound (Glycine-added M^pro): 21.2%; lung virus titer, ave of log pfu/g [6]: 4.602 log pfu/g and 4.836 log pfu/g; Virus titer in lung ([6]; 120 mg/kg): 4.60 Log10 PFU/gr and 4.84 Log10 PFU/gr; IC50 (SARS-CoV-2 M^pro/3CL^pro; FRET, mean ± 1 S.D., read-out: SARS-CoV2 M^pro enzyme assay IC50): 0.074 ± 0.034 µM; IC95, individual assays (SARS-CoV-2 M^pro/3CL^pro; source data, M^pro enzyme assay, listed as TKB0248): 12.00 and 2.000 and 4.000; IC50 (SARS-CoV-2 M^pro/3CL^pro; source data, M^pro enzyme assay, listed as TKB0248, read-out: IC50, individual assays): 0.0472 µM and 0.0622 µM and 0.113 µM; IC50 (SARS-CoV-2 M^pro/3CL^pro; source data, M^pro enzyme assay, read-out: IC50, Average): 0.0741 µM; Body weights and survival rates ([7]; ip, 120 mg/kg): no significant changes were recorded
